Results on 1 compound are retold here after patent publication US6656940B2, “Tricyclic quinoxaline derivatives as protein tyrosine kinase inhibitors” (Sugen, Inc., priority 1997, dated 2003).

Assay [1] concerns the target T1, human EGF-R (Homo sapiens, UniProt P00533).
T1 construct: expressed in transfected cells; host or cells: NIH 3T3/C7 cell line
The assay can be described thus: EGF Receptor ELISA (cellular/catalytic). The class given is cell-based. Particulars: 50% inhibition of PTK activity compared to that in a control; read-out: EGFR KINASE IC50. How it is done:
(§1) The cellular/catalytic assays described herein are performed in an ELISA format. The general procedure is as follows: a compound is introduced to cells expressing the test kinase, either naturally or recombinantly, for a selected period of time after which, if the test kinase is a receptor, a ligand known to activate the receptor's activity is added. The cells are lysed and the lysate is transferred to the wells of an ELISA plate previously coated with a specific antibody recognizing the substrate of the enzymatic phosphorylation reaction. Non-substrate components of the cell lysate are washed away and the amount of phosphorylation on the substrate is detected with an antibody specifically recognizing phosphotyrosine and is compared with that of control cells that were not contacted with the test compound.
EGF Receptor kinase activity in cells genetically engineered to express human EGF-R can be measured as described below:
1. NIH 3T3/C7 cell line (Honegger, et al., Cell 51:199-209, 1987) can be use for this assay.
3. Resuspend cells in seeding medium (DMEM, 0.5% bovine serum), and count the cells using trypan blue. […]
12. The maximal phosphotyrosine signal is determined by subtracting the value of the negative controls from the positive controls. The percent inhibition of phosphotyrosine content for extract-containing wells is then calculated, after subtraction of the negative controls.
Background: ELISA stands for enzyme-linked immunosorbent assay.

For assay [2], the target named is T2, FLK-1 receptor (Mus musculus, UniProt P35918).
T2 construct: expressed in transfected cells; host or cells: NIH3T3 C7#3 cells
T2 sequence (P35918 20-1345): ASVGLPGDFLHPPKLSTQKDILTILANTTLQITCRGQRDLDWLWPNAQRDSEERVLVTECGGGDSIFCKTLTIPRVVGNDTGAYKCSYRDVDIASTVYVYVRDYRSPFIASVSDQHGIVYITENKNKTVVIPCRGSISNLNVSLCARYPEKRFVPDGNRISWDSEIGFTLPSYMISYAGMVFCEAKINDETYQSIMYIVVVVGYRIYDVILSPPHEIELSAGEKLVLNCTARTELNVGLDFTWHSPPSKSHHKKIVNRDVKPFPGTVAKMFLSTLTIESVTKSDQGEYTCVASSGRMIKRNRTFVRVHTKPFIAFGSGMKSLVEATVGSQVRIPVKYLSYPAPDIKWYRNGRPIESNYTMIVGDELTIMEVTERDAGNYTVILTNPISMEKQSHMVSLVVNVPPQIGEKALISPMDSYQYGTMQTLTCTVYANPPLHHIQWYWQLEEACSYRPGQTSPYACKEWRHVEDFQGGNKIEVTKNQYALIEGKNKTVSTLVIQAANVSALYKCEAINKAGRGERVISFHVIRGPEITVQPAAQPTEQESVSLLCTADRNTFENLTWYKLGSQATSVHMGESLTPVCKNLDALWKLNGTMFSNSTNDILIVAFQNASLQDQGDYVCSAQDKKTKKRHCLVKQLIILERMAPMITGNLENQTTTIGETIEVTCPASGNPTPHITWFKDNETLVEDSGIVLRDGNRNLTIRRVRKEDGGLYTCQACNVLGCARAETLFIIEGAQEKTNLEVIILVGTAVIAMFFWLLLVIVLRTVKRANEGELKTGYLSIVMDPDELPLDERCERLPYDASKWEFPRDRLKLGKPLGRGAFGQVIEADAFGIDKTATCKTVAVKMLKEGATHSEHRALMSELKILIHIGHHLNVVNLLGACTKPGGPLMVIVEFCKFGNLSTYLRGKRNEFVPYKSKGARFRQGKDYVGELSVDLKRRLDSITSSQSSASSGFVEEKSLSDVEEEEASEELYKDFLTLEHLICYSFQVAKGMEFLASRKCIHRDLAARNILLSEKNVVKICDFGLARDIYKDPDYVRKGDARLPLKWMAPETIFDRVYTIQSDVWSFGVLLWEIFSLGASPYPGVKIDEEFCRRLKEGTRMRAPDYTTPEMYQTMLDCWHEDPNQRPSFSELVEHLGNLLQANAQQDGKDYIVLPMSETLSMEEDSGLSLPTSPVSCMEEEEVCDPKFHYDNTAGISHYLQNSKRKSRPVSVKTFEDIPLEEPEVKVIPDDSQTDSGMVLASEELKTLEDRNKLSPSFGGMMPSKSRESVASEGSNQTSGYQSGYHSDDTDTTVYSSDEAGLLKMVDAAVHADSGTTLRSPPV
The assay can be described thus: FLK-1 ELISA (cellular/catalytic). The class given is cell-based. Particulars: 50% inhibition of PTK activity compared to that in a control; read-out: FLK KINASE IC50. The method, then: as §1
An ELISA assay is conducted to measure the kinase activity of the FLK-1 receptor and more specifically, the inhibition or activation of TK activity on the FLK-1 receptor. Specifically, the following assay can be conducted to measure kinase activity of the FLK-1 receptor in cells genetically engineered to express Flk-1.
k. NIH3T3 C7#3 Cells (FLK-1 expressing cells);
1. Coat Corning 96-well ELISA plates with 1.0 μg per well Cappel Anti-rabbit IgG antibody in 0.1M Na2CO3 pH 9.6. Bring final volume to 150 μl per well. Coat plates overnight at 4° C. […]

T1 sequence (P00533 25-1210): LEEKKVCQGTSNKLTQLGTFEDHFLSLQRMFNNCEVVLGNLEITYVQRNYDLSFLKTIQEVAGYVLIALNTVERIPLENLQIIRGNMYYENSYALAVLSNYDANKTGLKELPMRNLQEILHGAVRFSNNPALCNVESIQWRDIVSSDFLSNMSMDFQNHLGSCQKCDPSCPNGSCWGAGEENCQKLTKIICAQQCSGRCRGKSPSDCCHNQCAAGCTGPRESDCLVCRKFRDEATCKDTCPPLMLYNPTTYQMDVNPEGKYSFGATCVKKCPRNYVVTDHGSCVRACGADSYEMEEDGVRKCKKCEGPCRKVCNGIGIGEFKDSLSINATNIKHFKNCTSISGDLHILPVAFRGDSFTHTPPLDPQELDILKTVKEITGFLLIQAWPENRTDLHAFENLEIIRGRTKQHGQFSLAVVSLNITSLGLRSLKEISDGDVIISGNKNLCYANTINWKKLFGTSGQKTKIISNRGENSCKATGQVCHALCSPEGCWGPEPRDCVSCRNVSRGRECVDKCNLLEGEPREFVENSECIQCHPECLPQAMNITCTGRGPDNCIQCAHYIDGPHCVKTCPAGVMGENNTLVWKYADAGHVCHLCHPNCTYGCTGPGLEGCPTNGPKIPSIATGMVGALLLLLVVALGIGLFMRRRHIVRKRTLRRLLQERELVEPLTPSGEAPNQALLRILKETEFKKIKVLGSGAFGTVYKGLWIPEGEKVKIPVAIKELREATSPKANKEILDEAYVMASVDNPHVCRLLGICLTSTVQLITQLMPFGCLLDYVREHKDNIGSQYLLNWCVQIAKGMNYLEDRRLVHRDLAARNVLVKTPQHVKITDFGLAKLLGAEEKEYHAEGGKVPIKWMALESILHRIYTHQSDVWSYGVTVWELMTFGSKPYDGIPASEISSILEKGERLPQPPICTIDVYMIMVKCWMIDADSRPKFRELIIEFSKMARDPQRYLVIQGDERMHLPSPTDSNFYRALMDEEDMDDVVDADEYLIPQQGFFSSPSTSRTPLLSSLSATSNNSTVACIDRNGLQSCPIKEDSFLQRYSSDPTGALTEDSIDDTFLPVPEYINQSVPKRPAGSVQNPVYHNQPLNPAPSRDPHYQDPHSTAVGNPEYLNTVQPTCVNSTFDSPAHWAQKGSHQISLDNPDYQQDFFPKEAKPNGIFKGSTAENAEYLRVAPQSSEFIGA

Regarding `Cc1nc2c(nc1C)CC1=NC(c3ccccc3)=NC1=C2` [6,7-dimethyl-2-phenylimidazo[4,5-g]quinoxaline], the IC50 was over 100 µM in assay [1] and 88.4 µM in assay [2].

As a reminder, the IC50 is the concentration that gives 50% inhibition.
